From patent publication US20100279997A1, “ANALGESIC THAT BINDS FILAMIN A” (priority 2009, published 2010)

Assays:
μ opiate receptor (MOR) = biological target: T1, μ opiate receptor (MOR) (Rattus norvegicus, UniProt P33535); assay: MOR agonist activity, [35S]GTPγS binding assay using striatal membranes; assay type: biochemical; conditions: for [35S]GTPγS binding to Gαo, FLNA-binding compound as agonist 0.1 μM: 0.1 μM compound; for [35S]GTPγS binding to Gαo, FLNA-binding compound as agonist 0.1 μM / [35S]GTPγS binding to Gαo, FLNA-binding compound as agonist 1 μM: striatal membranes; for [35S]GTPγS binding to Gαo, FLNA-binding compound as agonist 1 μM + BFNA: 1 μM compound + 1 μM β-funaltrexamine; for [35S]GTPγS binding to Gαo, FLNA-binding compound as agonist 1 μM: 1 μM compound; for % DAMGO + BFNA: relative to DAMGO + BFNA; for % DAMGO (0.1 μM) / % DAMGO (1 μM): relative to DAMGO
T1 construct: from tissue; host or cells: striatal tissue (membrane preparation)
Procedure: To assess the μ opiate receptor (MOR) agonist activity of positive compounds from the FLNA screening, compounds were tested in a [^35S]GTPγS binding assay using striatal membranes.
Striatal tissue was homogenized in 10 volumes of ice cold 25 mM HEPES buffer, pH 7.4, which contained 1 mM EGTA, 100 mM sucrose, 50 μg/ml leupeptin, 0.04 mM PMSF, 2 μg/ml soybean trypsin inhibitor and 0.2% 2-mercaptoethanol. The homogenates were centrifuged at 800×g for 5 minutes and the supernatants were centrifuged at 49,000×g for 20 minutes. The resulting pellets were suspended in 10 volume of reaction buffer, which contained 25 mM HEPES, pH 7.5, 100 mM NaCl, 50 μg/ml leupeptin, 2 μg/ml soybean trypsin inhibitor, 0.04 mM PMSF and 0.02% […].
The resultant striatal membrane preparation (200 μg) was admixed and maintained (incubated) at 30° C. for 5 minutes in reaction buffer as above that additionally contained 1 mM MgCl2 and 0.5 nM [^35S]GTPγS (0.1 μCi/assay, PerkinElmer Life and Analytical Sciences) in a total volume of 250 μl and continued for 5 minutes in the absence or presence of 0.1-10 μM of an assayed compound of interest. The reaction was terminated by dilution with 750 μl of ice-cold reaction buffer that contained 20 mM MgCl2 and 1 mM EGTA and immediate centrifugation at 16,000×g for 5 minutes.
The resulting pellet was solubilized by sonicating for 10 seconds in 0.5 ml of immunoprecipitation buffer containing 0.5% digitonin, 0.2% sodium cholate and 0.5% NP-40. Normal rabbit serum (1 μl) was added to 1 ml of lysate and incubated at 25° C. for 30 minutes. Nonspecific immune complexes were removed by incubation with 25 μl of protein A/G-conjugated agarose beads at 25° C. for 30 minutes followed by centrifugation at 5,000×g at 4° C. for 5 minutes. The supernatant was divided and separately incubated at 25° C. for 30 minutes with antibodies raised against Gao proteins (1:1,000 dilutions).
The immunocomplexes so formed were collected by incubation at 25° C. for 30 minutes with 40 μl of agarose-conjugated protein A/G beads and centrifugation at 5,000×g at 4° C. for 5 minutes. The pellet was washed and suspended in buffer containing 50 mM Tris-HCl, pH 8.0, and 1% NP-40. The radioactivity in the suspension was determined by liquid scintillation spectrometry. […] DAMGO (H-Tyr-D-Ala-Gly-N-MePhe-Gly-OH; 1 or 10 μM) was used as a positive control.

[1] = biological target: Bn-VAKGL pentapeptide of filamin A (FLNA) (Homo sapiens, UniProt P21333); assay: FITC-NLX-based FLNA screening assay (FLNA peptide binding assay); conditions: for inhibition at 0.01 µM: read-out: Percent inhibition of FITC-NLX binding, 0.01 μM; for inhibition at 0.1 µM: read-out: Percent inhibition of FITC-NLX binding, 0.1 μM; for inhibition at 1 µM: read-out: Percent inhibition of FITC-NLX binding, 1 μM
Procedure: The final assay volume is 100 μl.
Compounds are tested in triplicate or quadruplicate.

T1 sequence (P33535 whole entry): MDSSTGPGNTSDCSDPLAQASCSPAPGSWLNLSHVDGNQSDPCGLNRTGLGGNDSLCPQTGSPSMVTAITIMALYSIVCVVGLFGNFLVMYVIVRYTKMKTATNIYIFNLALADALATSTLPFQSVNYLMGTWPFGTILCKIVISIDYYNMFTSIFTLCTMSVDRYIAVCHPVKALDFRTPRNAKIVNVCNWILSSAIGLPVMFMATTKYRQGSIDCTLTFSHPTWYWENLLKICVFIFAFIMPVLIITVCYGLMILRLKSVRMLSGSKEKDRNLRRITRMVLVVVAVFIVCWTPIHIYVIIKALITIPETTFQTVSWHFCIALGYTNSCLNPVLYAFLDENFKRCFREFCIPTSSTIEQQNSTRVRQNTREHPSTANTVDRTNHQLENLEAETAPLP

Structure (SMILES)	[35S]GTPγS binding to Gαo, FLNA-binding compound as agonist 0.1 μM (μ opiate receptor (MOR))	[35S]GTPγS binding to Gαo, FLNA-binding compound as agonist 1 μM + BFNA (μ opiate receptor (MOR))	[35S]GTPγS binding to Gαo, FLNA-binding compound as agonist 1 μM (μ opiate receptor (MOR))	% DAMGO + BFNA (μ opiate receptor (MOR))	% DAMGO (0.1 μM) (μ opiate receptor (MOR))	% DAMGO (1 μM) (μ opiate receptor (MOR))	inhibition at 0.01 µM [1]	inhibition at 0.1 µM [1]	inhibition at 1 µM [1]
CC1CCC(C(C)C)C(OCC(O)CN2CCN(Cc3ccccc3)CC2)C1 (stereo not drawn) [Compound A0072]	254.3%	171.8%	305.1%	318.7%	126.8%	97.2%	45.5%	52.2%	59.4%
COc1ccc(OCC(O)CN2CCN(Cc3ccccc3)CC2)cc1 (stereo not drawn) [Compound A0073]	201.7%	185.8%	325.7%	344.7%	100.5%	103.7%	47.3%	54.8%	59.7%
CC1CN(CC(O)COc2cc(F)cc(F)c2)CC(C)O1 (stereo not drawn) [Compound A0046]	257.5%	140.0%	354.1%	189.4%	131.2%	128.3%			
OC(COc1ccc(Br)c(F)c1)CN1CCN(CCN2CCOCC2)CC1 (stereo not drawn) [Compound A0063]	122.8%	310%	245.8%	77.7%	78.7%	106.6%	21.2%	31%	38.8%
CC1CCC(C(C)C)C(OCC(O)CN2CCCN(C)CC2)C1 (stereo not drawn) [Compound A0010]	277.2%	190.3%	319.0%						
CC1CCC(C(C)C)C(OCC(O)CN2CCCCCC2)C1 (stereo not drawn) [Compound A0013]	102.1%	86.1%	164.8%						
CC1CCC(C(C)C)C(OCC(CN2CC(C)OC(C)C2)NCc2ccccc2)C1 (stereo not drawn) [Compound A0033]	155.8%	118.2%	254.6%						
CC1CCC(C(C)C)C(OCC(O)CN2CCc3ccccc3C2)C1 (stereo not drawn) [Compound A0040]	46.1%	16.7%	149.0%						
CC1CN(CC(O)COc2cccc(C(F)(F)F)c2)CC(C)O1 (stereo not drawn) [Compound A0051]	290.4%	211.6%	386.6%						
OC(CN1CCc2ccccc2C1)OCc1ccc(Br)c(F)c1 (stereo not drawn) [Compound A0057]	124.2%	44.8%	192.1%	112.3%	79.6%	83.3%	29.1%	37%	43.4%
CC1CCC(C(C)C)C(OCC(O)CN2CCCCC2)C1 (stereo not drawn) [Compound A0005]	179.7%	23.5%	239.2%						
